Columns and labels:
Format in all cases: in vivo
Alternaria solani = experiment: Field control of Alternaria solani on potato; details: potato Bintje
Source text: This example illustrates the efficacy of a composition according to the invention which comprises pyrimethanil and iprodione as active ingredients for controlling Alternaria solani on the potato. […] The following fungicidal compounds are compared: iprodione at the dose of 750 g/ha, pyrimethanil at the dose of 600 g/ha, […] The products are applied to potato (Bintje variety) which is sensitive to Alternaria solani. […] mancozeb—product tested—mancozeb—product tested—mancozeb—product tested. Scores for the disease (percentage of foliar surface area destroyed) are awarded 15 days after the second application of the experiment products (15 DAB), 8 days and 17 days after the third application of the experimental products (8 DAC and 17 DAC).

Sclerotinia sclerotinium = experiment: Control of Sclerotinia on lettuce, counting of attacked plants; details: lettuce Manita
Protocol: This sample illustrates the efficacy of a composition according to the invention which comprises pyrimethanil and iprodione as active ingredients for controlling Sclerotinia sclerotinium on lettuce. The following fungicidal compounds are compared: iprodione at the dose of 750 g/ha, pyrimethanil at the dose of 800 g/ha, […] A total of 5 […] carried out on lettuce plants ([…] variety). An inoculation with Sclerotinia is carried out the next day after the first treatment by spreading contaminated rape plant stems on the soil. 11 countings of the lettuce plants attacked by Schlerotinia are carried out throughout the trial.

Alternaria dauci = experiment: Field control of Alternaria dauci on carrot; details: carrot Nantes
Source text: This example illustrates the efficacy of a composition according to the invention which comprises pyrimethanil and iprodione as active ingredients for controlling alternaria dauci on carrot. The following fungicidal compounds are compared: iprodione at the dose of 750 g/ha, pyrimethanil at the dose of 600 g/ha, […] The products are applied to carrot (Nantes variety) which is sensitive to Alternaria dauci. The various products to be studied are sprayed at the rate of 3 applications in total with intervals of 8 days between the 1st and 2nd applications and of 10 days between the 2nd and 3rd application. Scores for the disease (percentage of foliar surface area destroyed) are awarded 7 days after the 1st and 2nd applications and then 3 days and 8 days after the 3rd application.

Alternaria porri = experiment: Control of Alternaria porri on onion, yield at harvest; details: for Yield (kg/ha): onion bulbs, harvest 32 days after last of 5 applications; for Yield gain (%): onion, compared with the untreated control
Protocol: This example illustrates the efficacy of a composition according to the invention which comprises pyrimethanil and iprodione as active ingredients for controlling Alternaria porri on onion.
The following fungicidal compounds are compared:
iprodione at the dose of 750 g/ha,
pyrimethanil at the dose of 600 g/ha,
iprodione+pyrimethanil at the doses of 300+150 g/ha to be applied in a mixture volume of 1 000 l/ha.
A total of 5 successive preventive sprayings are carried out on onion plants which were initially 31 days old and at a rhythm of 13 days.
32 days after the last application, harvesting is carried out and the yield is calculated in terms of kg of bulbs/ha and the yield gain expressed by comparing with the untreated control.

Ascochyta pisi = experiment: Control of Ascochyta pisi on protein-rich peas; details: pea Baccara, 23 days after second application
Source text: This example illustrates the efficacy of a composition according to the invention which comprises pyrimethanil and iprodione as active ingredients for controlling Ascochyta pisi on protein-rich peas. The following fungicidal compounds are compared: […] pyrimethanil at the dose of 600 g/ha, […] Two successive […] carried out on pea plants (Baccara variety) at the flowering stages and then two weeks after the first application. 23 days after the second application, the percentage of diseased leaves and pods is calculated; the results are presented in table 5.

With CC(C)NC(=O)N1CC(=O)N(c2cc(Cl)cc(Cl)c2)C1=O [iprodione] the “Score for the disease (percentage of foliar surface area destroyed)” value (Alternaria solani; 750 g/ha, 8 DAC) was 4.38%, the “Score for the disease (percentage of foliar surface area destroyed)” value (Alternaria solani; 750 g/ha, 15 DAB) was 1.75% and the “Score for the disease (percentage of foliar surface area destroyed)” value (Alternaria solani; 750 g/ha, 17 DAC) was 10%. The “Counting of the lettuce plants attacked by Sclerotinia” value (“Counting” below) (Sclerotinia sclerotinium; 750 g/ha, counting 1) was 1, the “Counting” value (Sclerotinia sclerotinium; 750 g/ha, counting 2) was 2.5 and the “Counting” value (Sclerotinia sclerotinium; 750 g/ha, counting 3) was 3. For the same compound, the “Counting” value (Sclerotinia sclerotinium; 750 g/ha, counting 4) was 4, the “Counting” value (Sclerotinia sclerotinium; 750 g/ha, counting 5) was 4 and the “Counting” value (Sclerotinia sclerotinium; 750 g/ha, counting 6) was 4.8. For the same compound, the “Counting” value (Sclerotinia sclerotinium; 750 g/ha, counting 7) was 5.5, the “Counting” value (Sclerotinia sclerotinium; 750 g/ha, counting 8) was 5.9 and the “Counting” value (Sclerotinia sclerotinium; 750 g/ha, counting 9) was 6.7. The “Counting” value (Sclerotinia sclerotinium; 750 g/ha, counting 10) was 7.4, the “Counting” value (Sclerotinia sclerotinium; 750 g/ha, counting 11) was 7.9 and the “Score for the disease (percentage of foliar surface area destroyed)” value (Alternaria dauci; 750 g/ha, 3 DAC) was 19.4%. For the same compound, the “Score for the disease (percentage of foliar surface area destroyed)” value (Alternaria dauci; 750 g/ha, 7 DAA) was 8.7%, the “Score for the disease (percentage of foliar surface area destroyed)” value (Alternaria dauci; 750 g/ha, 7 DAB) was 11.9% and the “Score for the disease (percentage of foliar surface area destroyed)” value (Alternaria dauci; 750 g/ha, 8 DAC) was 35%. The “Yield (kg/ha)” value (Alternaria porri; 750 g/ha) was 33 000 kg/ha, the “Yield gain (%)” value (Alternaria porri; 750 g/ha) was 16.8% and the “Amount of diseased leaves (%)” value (Ascochyta pisi; 500 g/ha, first column) was 46%. For the same compound, the “Amount of diseased leaves (%)” value (Ascochyta pisi; 500 g/ha, second column) was 34%.
For Cc1cc(C)nc(Nc2ccccc2)n1 [pyrimethanil], the “Score for the disease (percentage of foliar surface area destroyed)” value (Alternaria solani; 600 g/ha, 8 DAC) was 8.75%, the “Score for the disease (percentage of foliar surface area destroyed)” value (Alternaria solani; 600 g/ha, 15 DAB) was 3.44% and the “Score for the disease (percentage of foliar surface area destroyed)” value (Alternaria solani; 600 g/ha, 17 DAC) was 13.13%. The “Counting” value (Sclerotinia sclerotinium; 800 g/ha, counting 1) was 3.5, the “Counting” value (Sclerotinia sclerotinium; 800 g/ha, counting 2) was 5.5 and the “Counting” value (Sclerotinia sclerotinium; 800 g/ha, counting 3) was 8. For the same compound, the “Counting” value (Sclerotinia sclerotinium; 800 g/ha, counting 4) was 14.8, the “Counting” value (Sclerotinia sclerotinium; 800 g/ha, counting 5) was 18 and the “Counting” value (Sclerotinia sclerotinium; 800 g/ha, counting 6) was 22.8. The “Counting” value (Sclerotinia sclerotinium; 800 g/ha, counting 7) was 26, the “Counting” value (Sclerotinia sclerotinium; 800 g/ha, counting 8) was 29.4 and the “Counting” value (Sclerotinia sclerotinium; 800 g/ha, counting 9) was 31.4. The “Counting” value (Sclerotinia sclerotinium; 800 g/ha, counting 10) was 33.9, the “Counting” value (Sclerotinia sclerotinium; 800 g/ha, counting 11) was 35.8 and the “Score for the disease (percentage of foliar surface area destroyed)” value (Alternaria dauci; 600 g/ha, 3 DAC) was 31.2%. For the same compound, the “Score for the disease (percentage of foliar surface area destroyed)” value (Alternaria dauci; 600 g/ha, 7 DAA) was 11.9%, the “Score for the disease (percentage of foliar surface area destroyed)” value (Alternaria dauci; 600 g/ha, 7 DAB) was 21.9% and the “Score for the disease (percentage of foliar surface area destroyed)” value (Alternaria dauci; 600 g/ha, 8 DAC) was 57.5%. The “Yield (kg/ha)” value (Alternaria porri; 600 g/ha) was 31 500 kg/ha, the “Yield gain (%)” value (Alternaria porri; 600 g/ha) was 11.5% and the “Amount of diseased leaves (%)” value (Ascochyta pisi; 600 g/ha, first column) was 21%. For the same compound, the “Amount of diseased leaves (%)” value (Ascochyta pisi; 600 g/ha, second column) was 16%.
